Test results reported in ChEMBL document CHEMBL3046217, “Synthesis, antimicrobial, antioxidant, anti-inflammatory, and analgesic activities of some new 3-(2-thienyl)pyrazole-based heterocycles” (Med Chem Res, 2012).
Values after ≈ are worked out from the molar mass of the structure shown. Active and inactive are the calls of the source. No cut-off for these calls is given here.

Legend:
Bacillus spizizenii = test: Antimicrobial activity against Bacillus subtilis subsp. spizizenii ATCC 6633 after 24 hr by agar diffusion method; format: functional; settings: for MIC: Bacillus spizizenii, ATCC 6633, 24 h
Candida albicans = test: Antimicrobial activity against Candida albicans NRRLY-477 after 24 hr by agar diffusion method; format: functional; settings: for MIC: Candida albicans, NRRLY-477, 24 h
Aspergillus niger = test: Antimicrobial activity against Aspergillus niger after 24 hr by agar diffusion method; format: functional, organism-based
Staphylococcus aureus = test: Antimicrobial activity against Staphylococcus aureus ATCC 29213 after 24 hr by agar diffusion method; format: functional; settings: for MIC: Staphylococcus aureus, ATCC 29213, 24 h
Enterobacter cloacae = test: Antimicrobial activity against Enterobacter cloacae ATCC 3047 after 24 hr by agar diffusion method; format: functional; settings: for MIC: Enterobacter cloacae, ATCC 3047, 24 h
Mycolicibacterium phlei = test: Antimicrobial activity against Mycobacterium phlei after 24 hr by agar diffusion method; format: functional
Klebsiella pneumoniae = test: Antimicrobial activity against Klebsiella pneumoniae ATCC 13883 after 24 hr by agar diffusion method; format: functional; settings: for MIC: Klebsiella pneumoniae, ATCC 13883, 24 h
Salmonella typhi = test: Antimicrobial activity against Salmonella enterica subsp. enterica serovar Typhi after 24 hr by agar diffusion method; format: functional; settings: for MIC: Salmonella enterica, 24 h
Pseudomonas aeruginosa = test: Antimicrobial activity against Pseudomonas aeruginosa ATCC 29953 after 24 hr by agar diffusion method; format: functional; settings: for MIC: Pseudomonas aeruginosa, ATCC 29953, 24 h
Escherichia coli = settings: ATCC 25922
Description: Antimicrobial activity against Escherichia coli ATCC 25922 after 24 hr by agar diffusion method

Enterococcus faecalis = test: Antimicrobial activity against Enterococcus faecalis ATCC 29212 after 24 hr by agar diffusion method; format: functional; settings: for MIC: Enterococcus faecalis, ATCC 29212, 24 h
Mus musculus = test: Analgesic activity in Mus musculus Swiss albino (mouse) assessed as inhibition of acetic acid-induced writhing at 20 mg/kg, po administered 30 min before acetic acid challenge measured for 20 min after acetic acid injection […]; format: functional, organism-based; parameters: dose 20 mg/kg
[1] = system: Radical scavenging activity; test: Antioxidant activity assessed as as DPPH radical scavenging activity by spectrophotometry; format: functional
Saccharomyces cerevisiae = test: Antimicrobial activity against Saccharomyces cerevisiae after 24 hr by agar diffusion method; format: functional; settings: for MIC: Saccharomyces cerevisiae, 24 h
Rattus norvegicus = test: Anti-inflammatory activity in Rattus norvegicus Sprague-Dawley (rat) assessed as inhibition of carrageenan-induced paw edema at 20 mg/kg, po administered 1 hr before carrageenan challenge and measured hourly for 4-hr post drug administration by mercury plethysmometer; format: functional, organism-based; parameters: dose 20 mg/kg

| SMILES | inhibition zone (IZ) (Bacillus spizizenii) | MIC (Bacillus spizizenii) | inhibition zone (IZ) (Candida albicans) | Activity (Aspergillus niger) | inhibition zone (IZ) (Staphylococcus aureus) | MIC (Staphylococcus aureus) | inhibition zone (IZ) (Enterobacter cloacae) | MIC (Enterobacter cloacae) | inhibition zone (IZ) (Mycolicibacterium phlei) | inhibition zone (IZ) (Klebsiella pneumoniae) | inhibition zone (IZ) (Salmonella typhi) | inhibition zone (IZ) (Pseudomonas aeruginosa) | IZ (Escherichia coli) | inhibition zone (IZ) (Enterococcus faecalis) | MIC (Enterococcus faecalis) | inhibition (Mus musculus) | IC50 [1] | inhibition zone (IZ) (Saccharomyces cerevisiae) | MIC (Saccharomyces cerevisiae) | inhibition (Rattus norvegicus) | further results |
| --- | --- | --- | --- | --- | --- | --- | --- | --- | --- | --- | --- | --- | --- | --- | --- | --- | --- | --- | --- | --- | --- |
| C(=N/Nc1nc2nc3ccccc3nc2s1)/c1cn(-c2ccccc2)nc1-c1cccs1 | 26 mm | 41.6 µg/mL (≈ 91.7 µM) | inactive | inactive | 21 mm | 333 µg/mL (≈ 735 µM) | 18 mm | 333 µg/mL (≈ 735 µM) | 15 mm | inactive | inactive | 28 mm | inactive | 21 mm | 167 µg/mL (≈ 367 µM) | Active | 500 µg/mL (≈ 1100 µM) | 28 mm | 41.6 µg/mL (≈ 91.7 µM) | Active | MIC (Pseudomonas aeruginosa): 41.6 µg/mL (≈ 91.7 µM) |
| Cc1nc(N/N=C\c2cn(-c3ccccc3)nc2-c2cccs2)sc1/N=N/c1ccc(F)cc1 | 22 mm | 167 µg/mL (≈ 342 µM) | 17 mm | inactive | 21 mm | 41.8 µg/mL (≈ 85.7 µM) | 26 mm | 41.6 µg/mL (≈ 85.3 µM) | inactive | 18 mm | inactive | 19 mm | inactive | 16 mm |  | Active | 25 µg/mL (≈ 51.3 µM) | 31 mm | 20.8 µg/mL (≈ 42.7 µM) | Active | MIC (Candida albicans): 167 µg/mL (≈ 342 µM); MIC (Klebsiella pneumoniae): 167 µg/mL (≈ 342 µM); MIC (Pseudomonas aeruginosa): 333 µg/mL (≈ 684 µM) |
| O=C(O)Cc1ccccc1Nc1c(Cl)cccc1Cl |  |  |  |  |  |  |  |  |  |  |  |  |  |  |  | Active |  |  |  | Active |  |
| O=C1CS/C(=N\N=C/c2cn(-c3ccccc3)nc2-c2cccs2)N1 | 19 mm | 167 µg/mL (≈ 453 µM) | inactive | inactive | 29 mm | 20.8 µg/mL (≈ 56.6 µM) | 13 mm |  | inactive | inactive | inactive | inactive | inactive | 15 mm |  | Active | 500 µg/mL (≈ 1360 µM) | 29 mm | 41.6 µg/mL (≈ 113 µM) | Active |  |
| C(=N/Nc1nc(-c2cc3ccccc3o2)cs1)/c1cn(-c2ccccc2)nc1-c1cccs1 | 23 mm | 167 µg/mL (≈ 356 µM) | inactive | inactive | 21 mm | 167 µg/mL (≈ 356 µM) | 15 mm |  | inactive | 15 mm | inactive | 14 mm | inactive | 15 mm |  | Active | 25 µg/mL (≈ 53.5 µM) | inactive |  | Active |  |
| O=C(O)c1cn(C2CC2)c2cc(N3CCNCC3)c(F)cc2c1=O [CIPROFLOXACIN] | 22 mm | 10.4 µg/mL (≈ 31.4 µM) | inactive |  |  |  |  |  | 22 mm |  | 21 mm | 24 mm |  | 23 mm |  |  |  | inactive |  |  | MIC (Salmonella typhi): 41.6 µg/mL (≈ 126 µM) |
| N/C(=N/N=C\c1cn(-c2ccccc2)nc1-c1cccs1)SCC(=O)Nc1cccs1 | 23 mm | 83.3 µg/mL (≈ 179 µM) | 15 mm | inactive | 28 mm | 20.8 µg/mL (≈ 44.6 µM) | 28 mm | 20.8 µg/mL (≈ 44.6 µM) | inactive | 18 mm | inactive | 15 mm | inactive | 21 mm | 83.3 µg/mL (≈ 179 µM) | Active | 1000 µg/mL (≈ 2140 µM) | inactive |  | Active | MIC (Klebsiella pneumoniae): 167 µg/mL (≈ 357 µM) |
| O=c1oc2ccccc2cc1-c1csc(N/N=C\c2cn(-c3ccccc3)nc2-c2cccs2)n1 | 21 mm | 167 µg/mL (≈ 336 µM) | inactive | inactive | 11 mm |  | 14 mm |  | inactive | 14 mm | inactive | inactive | inactive | 22 mm | 83.3 µg/mL (≈ 168 µM) | Active | 25 µg/mL (≈ 50.4 µM) | inactive |  | Active |  |
| Clc1ccc(C2=NNC(c3cn(-c4ccccc4)nc3-c3cccs3)C2)cc1 (centres undefined) | 17 mm | 333 µg/mL (≈ 823 µM) | 17 mm | inactive | 20 mm | 333 µg/mL (≈ 823 µM) | 21 mm | 83.3 µg/mL (≈ 206 µM) | inactive | inactive | inactive | 26 mm | inactive | 21 mm | 41.6 µg/mL (≈ 103 µM) | Active | 750 µg/mL (≈ 1850 µM) | 31 mm | 20.8 µg/mL (≈ 51.4 µM) | Active | MIC (Candida albicans): 167 µg/mL (≈ 411 µM); MIC (Pseudomonas aeruginosa): 167 µg/mL (≈ 411 µM) |
| NC(=S)N/N=C\c1cn(-c2ccccc2)nc1-c1cccs1 | 29 mm | 20.8 µg/mL (≈ 63.5 µM) | 16 mm | inactive | 21 mm | 83.3 µg/mL (≈ 254 µM) | 26 mm | 20.8 µg/mL (≈ 63.5 µM) | 16 mm | 28 mm | 28 mm | 15 mm | inactive | 13 mm |  | Active | 500 µg/mL (≈ 1530 µM) | 30 mm | 20.8 µg/mL (≈ 63.5 µM) | Active | MIC (Klebsiella pneumoniae): 20.8 µg/mL (≈ 63.5 µM); MIC (Salmonella typhi): 20.8 µg/mL (≈ 63.5 µM) |
| Cc1ccc(NC(=S)N2N=C(c3ccc(Cl)cc3)CC2c2cn(-c3ccccc3)nc2-c2cccs2)cc1 (centres undefined) | 21 mm | 167 µg/mL (≈ 301 µM) | 15 mm | inactive | 15 mm |  | 16 mm |  | 13 mm | 21 mm | inactive | inactive | inactive | 21 mm | 167 µg/mL (≈ 301 µM) | Active | 500 µg/mL (≈ 902 µM) | inactive |  | Active | MIC (Klebsiella pneumoniae): 333 µg/mL (≈ 601 µM) |
| O=C(/C=C/c1cn(-c2ccccc2)nc1-c1cccs1)c1ccc(Cl)cc1 | 21 mm | 167 µg/mL (≈ 426 µM) | 18 mm | inactive | 21 mm | 167 µg/mL (≈ 426 µM) | 24 mm | 41.6 µg/mL (≈ 106 µM) | 15 mm | 18 mm | 24 mm | 19 mm | inactive | 21 mm | 83.3 µg/mL (≈ 213 µM) | Active | 1000 µg/mL (≈ 2560 µM) | 29 mm | 20.8 µg/mL (≈ 53.2 µM) | Active | MIC (Candida albicans): 167 µg/mL (≈ 426 µM); MIC (Klebsiella pneumoniae): 167 µg/mL (≈ 426 µM); MIC (Salmonella typhi): 83.3 µg/mL (≈ 213 µM); MIC (Pseudomonas aeruginosa): 333 µg/mL (≈ 853 µM) |
| CC(=O)N1CCN(c2ccc(OCC3COC(Cn4ccnc4)(c4ccc(Cl)cc4Cl)O3)cc2)CC1 (racemic) [KETOCONAZOLE] | inactive |  | 22 mm |  | inactive |  | inactive |  | inactive | inactive | inactive | inactive | inactive | inactive |  |  |  | 23 mm | 5.2 µg/mL (≈ 9.78 µM) |  | MIC (Candida albicans): 10.4 µg/mL (≈ 19.6 µM) |
